# Where a name gives a salt, the structure may show the parent alone.
# How the values were obtained:
# [1] = design: species or system Sprague-Dawley rats; details: male, Sprague-Dawley, rat, in vivo
# Experimental: The lungs were removed and divided into left and right lung. Each half of the lung was weighed and placed in separate vials (for Pharmacokinetics analysis), snap frozen in liquid nitrogen and stored frozen at −60° C. or lower until shipped overnight on dry ice for further evaluation.
# Each half of the lung was weighed and placed in separate vials (for Pharmacokinetics analysis), snap frozen in liquid nitrogen and stored frozen at −60° C. or lower until shipped overnight on dry ice to the sponsor for further evaluation.
# [2] = system: Calcium-reconstituted sheep blood; experiment: Activated clotting time (ACT), Hemochron Response; format: biochemical; details: individual drug at 0.6 ng/mg
# Experimental: The activated clotting time (ACT) evaluation of anticoagulants was performed in Calcium-reconstituted sheep blood and recorded employing the Hemochron® Response device. […] A target amount of drug solution was then added into the test tube. […] The tube was gently shaken before being inserted into the Hemochron Response detector. The ACT read out was recorded and reported. The ACT of the control blood in the absence of any drug as first determined to establish a baseline. Then ACT was determined in the presence of different concentrations of the drug as a single component. Selected drug combinations, were then tested to evaluate for potential synergy in action between the two drugs.
# [3] = Solubility in water / aqueous buffer / Captisol
# in vivo [4] = experiment: in vivo; design: species or system Sprague-Dawley rats; details: male, Sprague-Dawley, rat; for Tmax: inhaled or intranasal
# Experimental: At their assigned time-point, rats were anesthetized and subjected to exsanguination via an abdominal vessel and gross necropsy. Whole blood (two ˜1.5 ml aliquots, K2EDTA) was collected. The whole blood was stored frozen at −60° C. or lower until shipped overnight with dry ice for further evaluation.
# Whole blood (two ˜100 μL aliquots, K2EDTA) was collected from the catheter of conscious rats for systemic pharmacokinetics (PK) at the time-points. Whole blood samples were stored at −60° C. or lower until shipped overnight on dry ice for further evaluation.
# porcine coronary artery [5] = experiment: Histopathology scores (fibrin, injury, inflammation) of stented porcine coronary arteries; details: for inhibiting fibrin formation compared to bare metal control stents: at 7 days, released from stents
# porcine coronary artery [6] = experiment: Quantitative coronary angiography (late lumen loss, diameter stenosis) after stent implantation; details: at 7 days, released from stents
# [7] = Coated balloon tissue drug concentration in vivo (LCMS); design: species or system porcine; details: pig, 300 μg
# Source text: The balloon (e.g., the balloon of a balloon-catheter of a stent-delivery system) was advanced to a site to be treated (e.g., an occluded or weakened section of a blood vessel to be opened up or supported by a stent) in the body of a subject and inflated to a desired inflation diameter. Before, during, and/or after inflation of the balloon, the balloon released the therapeutic composition to, into, or at the treatment site, or to, into, or at an area adjacent thereto, by any suitable mechanism (e.g., concentration gradient, diffusion, pressure, or mechanical force, or a combination thereof). […] The tissue concentration is shown in ng/mg tissue. The coated balloons were evaluated for drug delivery efficiency in an animal study. Drug transfer of the coated balloons into arterial segments were evaluated using harvested pig arteries. The arterial wall was separated after animal study. The arterial walls were then stored in an individual labeled vial. All samples were kept on dry ice until stored in the −80° C. freezer. All samples were then frozen to […] prior to being analyzed.
# [8] = Whole blood PK of drug eluting stents; details: for concentration at 180 min: 180 min. (3 hr); for concentration at 60 min: 60 min. (1 hr); for concentration at 120 min: 120 min. (2 hr)
# in vivo [9] = details: pig, whole blood
# [10] = pig, whole blood, other: drug eluting stent implanted in coronary artery, Whole blood concentration, SS16 stents, 1 H group
# [11] = pig, whole blood, other: drug eluting stents implanted in coronary arteries, Whole blood concentration, SS16 stents, 1 D group
# [12] = pig, whole blood, other: drug eluting stents implanted in coronary arteries, Whole blood concentration, SS17 stents, 1 D group
# [13] = pig, whole blood, other: drug eluting stents implanted in coronary arteries, Whole blood concentration, SS17 stents, 1 H group
compound,measurement,setting,value
COc1ccc(-n2nc(C(N)=O)c3c2C(=O)N(c2ccc(N4CCCCC4=O)cc2)CC3)cc1 [Apixaban],time the drug content in lung tissue lasted,[1],up to 3.5 hours
same,time the drug content in lungs tissue lasted,[1],up to 1 hours
same,ACT,[2],522
same,solubility,"[3]; aqueous buffer, solubility in aqueous buffers, drug alone",~28 µg/mL
same,solubility,"[3]; water, solubility in water",~28 µg/mL
same,Tmax,in vivo [4],5 to 10 min
CC1CNc2c(cccc2S(=O)(=O)N[C@@H](CCCNC(=N)N)C(=O)N2CC[C@@H](C)C[C@@H]2C(=O)O)C1 (some centres unmarked) [Argatroban],solubility,"physchem; aqueous buffer, solubility in aqueous buffers",~3000 µg/mL
same,solubility,"physchem; water, solubility in water",~3000 µg/mL
same,time the drug content in lung tissue lasted,[1],more than 6 hours
same,time the drug content in lungs tissue lasted,[1],more than 5 hours
same,ACT,[2],301
same,inhibiting fibrin formation compared to bare metal control stents,porcine coronary artery [5],not more effective
same,Tmax,in vivo [4],~60 min
"CN1CCCC(n2nc(Cc3ccc(Cl)cc3)c3ccccc3c2=O)CC1 (centres unmarked) [Azelastine, Azelastine hydrochloride]",time the drug content in lungs tissue lasted,[1],more than 5 hours
same,time the systemic drug in whole blood lasted,in vivo [4],up to 2 hours
"CCN(CCO)CCCC(C)Nc1ccnc2cc(Cl)ccc12 (centres unmarked) [Hydroxychloroquine, Hydroxychloroquine sulfate]",time the drug content in lungs tissue lasted,[1],more than 5 hours
same,time the systemic drug in whole blood lasted,in vivo [4],more than 5 hours
O=C(NC[C@H]1CN(c2ccc(N3CCOCC3=O)cc2)C(=O)O1)c1ccc(Cl)s1 [Rivaroxaban],inhibiting smooth muscle cell proliferation (LLL) compared to bare metal control stents,porcine coronary artery [6],not more effective
same,concentration at 15 min,[7]; coronary artery wall,1230 ± 370 ng/g
same,concentration at 15 min,[7]; superficial femoral artery wall,40600 ± 64700 ng/g
same,Whole blood concentration,"[8]; SS16 stents, 1 D group, 24 hr (Day 1)",BQL
same,Whole blood concentration,"[8]; SS16 stents, 1 D group, Pre-implant",BQL
same,Whole blood concentration,"[8]; SS16 stents, 1 H group, Pre-implant",BQL
same,Whole blood concentration,"[8]; SS16 stents, 7 D group, Day 7",BQL
same,Whole blood concentration,"[8]; SS16 stents, 7 D group, Pre-implant",BQL
same,Whole blood concentration,"[8]; SS16 stents, 28 D group, Day 28",BQL
same,Whole blood concentration,"[8]; SS16 stents, 28 D group, Pre-implant",BQL
same,Whole blood concentration,"[8]; SS17 stents, 1 D group, Pre-implant",BQL
same,Whole blood concentration,"[8]; SS17 stents, 1 H group, Pre-implant",BQL
same,Whole blood concentration,"[8]; SS17 stents, 7 D group, Day 7",BQL
same,Whole blood concentration,"[8]; SS17 stents, 7 D group, Pre-implant",BQL
same,Whole blood concentration,"[8]; SS17 stents, 28 D group, Day 28",BQL
same,Whole blood concentration,"[8]; SS17 stents, 28 D group, Pre-implant",BQL
same,"systemic blood concentration versus systemic therapeutic concentrations (Cmax, Cmean, Ctrough)","[8]; drug eluting stents SS15, SS16, SS17",below
same,concentration at 30 min,"[8]; pig, whole blood, other: drug eluting stent implanted in coronary artery, Whole blood concentration, SS16 stents, 1 D group",3.76 ng/mL
same,concentration at 30 min,[8]; [10],3.34 ng/mL
same,concentration at 45 min,[8]; [10],3.68 ng/mL
same,concentration at 180 min,"[8]; pig, whole blood, other: drug eluting stent implanted in coronary artery, Whole blood concentration, SS17 stents, 1 D group",8.39 ng/mL
same,concentration at 4 h,"[8]; pig, whole blood, other: drug eluting stent implanted in coronary artery, Whole blood concentration, SS17 stents, 1 D group, 4 hr",3.74 ng/mL
same,concentration at 5 h,"[8]; pig, whole blood, other: drug eluting stent implanted in coronary artery, Whole blood concentration, SS17 stents, 1 D group, 5 hr",3.9 ng/mL
same,concentration at 6 h,"[8]; pig, whole blood, other: drug eluting stent implanted in coronary artery, Whole blood concentration, SS17 stents, 1 D group, 6 hr",3.1 ng/mL
same,concentration at 24 h,"[8]; pig, whole blood, other: drug eluting stent implanted in coronary artery, Whole blood concentration, SS17 stents, 1 D group, 24 hr (Day 1)",0.16 ng/mL
same,concentration at 45 min,[8]; [11],3.47 ng/mL
same,concentration at 60 min,[8]; [11],2.61 ng/mL
same,concentration at 90 min,[8]; [11],2.43 ng/mL
same,concentration at 120 min,[8]; [11],2.3 ng/mL
same,concentration at 180 min,[8]; [11],1.95 ng/mL
same,concentration at 4 hr,"[8]; pig, whole blood, other: drug eluting stents implanted in coronary arteries, Whole blood concentration, SS16 stents, 1 D group, 4 hr",1.23 ng/mL
same,concentration at 5 hr,"[8]; pig, whole blood, other: drug eluting stents implanted in coronary arteries, Whole blood concentration, SS16 stents, 1 D group, 5 hr",1.11 ng/mL
same,concentration at 6 hr,"[8]; pig, whole blood, other: drug eluting stents implanted in coronary arteries, Whole blood concentration, SS16 stents, 1 D group, 6 hr",1.03 ng/mL
same,concentration at 60 min,"[8]; pig, whole blood, other: drug eluting stents implanted in coronary arteries, Whole blood concentration, SS16 stents, 1 H group",4.08 ng/mL
same,concentration at 15 min,[8]; [12],24 ng/mL
same,concentration at 30 min,[8]; [12],20.1 ng/mL
same,concentration at 45 min,[8]; [12],19.5 ng/mL
same,concentration at 60 min,[8]; [12],18.5 ng/mL
same,concentration at 90 min,[8]; [12],15 ng/mL
same,concentration at 120 min,[8]; [12],11.6 ng/mL
same,concentration at 150 min,"[8]; pig, whole blood, other: drug eluting stents implanted in coronary arteries, Whole blood concentration, SS17 stents, 1 D group, 150 min.",11.3 ng/mL
same,concentration at 15 min,[8]; [13],10.8 ng/mL
same,concentration at 30 min,[8]; [13],8.44 ng/mL
same,concentration at 45 min,[8]; [13],7.82 ng/mL
same,concentration at 60 min,[8]; [13],7.54 ng/mL
same,inhibiting fibrin formation compared to control,"porcine coronary artery [5]; at 7 days and/or at 28 days, faster release formulation",more effective
same,inhibiting fibrin formation compared to bare metal control stents,porcine coronary artery [5],more effective
same,concentration at 15 min,in vivo [9]; other: drug eluting stent implanted in coronary artery,3.32 ng/mL
same,concentration at 150 min,in vivo [9]; other: drug eluting stents implanted in coronary arteries,2.08 ng/mL
Dalteparin,inhibiting smooth muscle cell proliferation (LLL) compared to bare metal control stents,porcine coronary artery [6],not more effective
same,inhibiting fibrin formation compared to bare metal control stents,porcine coronary artery [5],not more effective

# From patent US20230165874A1, “ANTICOAGULANT COMPOUNDS AND METHODS AND DEVICES FOR THEIR PULMONARY USE” (priority 2020, published 2023)
